US6552072B2, “Use of metal complexes to treat gastrointestinal infections” (Pfylori Limited, priority 1996, dated 2003)

Tested on: H. pylori
Experiment: In vitro minimum inhibitor concentrations (MICs) of metal-ligand complexes against H. pylori
Type: cell-based
Details: Example 1
Excerpt: In Vitro Minimum Inhibitor Concentrations (MICs) Using Metal-ligand Complexes
Study of MICs of Other Metal-ligands Against H. pylori

Row | Compound | MIC (Helicobacter pylori) [µg/mL] | MIC against H. pylori
1 | O=C(O)CC(O)(CC(=O)O)C(=O)O [Citrate] | > 0.064 | –
2 | O=C([O-])CC(O)(CC(=O)[O-])C(=O)[O-].O=C([O-])CC(O)(CC(=O)[O-])C(=O)[O-].[Zn+2].[Zn+2].[Zn+2] [Zinc Citrate, Zinc citrate] | – | 8 to 64 µg/L
3 | [O-][n+]1ccccc1[S-].[O-][n+]1ccccc1[S-].[Zn+2] [Zinc Salt] | – | >>64 μg/l
